Reference: patent US20080064667A1, “OXAZOLE DERIVATIVES OF TETRACYCLINES” (Wyeth, priority 2003, published 2008)
≈ marks a conversion by molar mass, not a printed value.

Legend:
Assay in all cases: MIC, broth microdilution (NCCLS)
Assay type in all cases: cell-based
[1] = system: H. influenzae<> GC6896 (ATCC Control); conditions: Haemophilus influenzae, Mueller-Hinton II broth, 18-22 hours at 35° C.
Experimental: (§1) Methods for in Vitro Antibacterial Evaluation
(§2) The Minimum Inhibitory Concentration (MIC)
(§3) Antimicrobial susceptibility testing. The in vitro activities of the antibiotics are determined by the broth microdilution method as recommended by the National Committee for Clinical Laboratory Standards (NCCLS) (1). Mueller-Hinton II broth (MHBII)(BBL Cockeysville, Md.) is the medium employed in the testing procedures. Microtiter plates containing serial dilutions of each antimicrobial agent are inoculated with each organism to yield the appropriate density (10^5 CFU/ml) in a 100 μl final volume. The plates are incubated for 18-22 hours at 35° C. in ambient air.
(§4) 1. NCCLS. 2000. Methods for Dilution Antimicrobial Susceptibility Tests for Bacteria That Grow Aerobically; Approved Standards: M7-A5, vol. 20. National Committe for Clinical Laboratory Standards, Wayne, Pa.

[2] = system: S. pneumoniae* GC1894 (Clinical); conditions: Streptococcus pneumoniae, Mueller-Hinton II broth, 18-22 hours at 35° C.
Experimental: as §1, §2, §3, §4

[3] = system: C. albicans GC3066 ATCC (Control); conditions: Candida albicans, Mueller-Hinton II broth, 18-22 hours at 35° C.
Experimental: as §1, §2, §3, §4

[4] = system: E. coli GC2203 (ATCC Control); conditions: Escherichia coli, Mueller-Hinton II broth, 18-22 hours at 35° C.
Experimental: as §1, §2, §3, §4

E. coli GC1073 (tet(B)) = conditions: Escherichia coli
Experimental: as §1, §2, §3, §4

[5] = system: M. catarrhalis* GC6907 (Clinical); conditions: Moraxella catarrhalis, Mueller-Hinton II broth, 18-22 hours at 35° C.
Experimental: as §1, §2, §3, §4

[6] = system: S. aureus GC4536 (Smith MP -In Vivo); conditions: Staphylococcus aureus, Mueller-Hinton II broth, 18-22 hours at 35° C.
Experimental: as §1, §2, §3, §4

E. coli GC2270 (tet(M)) = conditions: Escherichia coli
Experimental: as §1, §2, §3, §4

[7] = system: S. aureus GC1079 (tet(K)); conditions: Staphylococcus aureus, Mueller-Hinton II broth, 18-22 hours at 35° C.
Experimental: as §1, §2, §3, §4

[8] = system: S. aureus GC1131 (Clinical); conditions: Staphylococcus aureus, Mueller-Hinton II broth, 18-22 hours at 35° C.
Experimental: as §1, §2, §3, §4

[9] = system: E. coli GC4559 (parent GC4560); conditions: Escherichia coli, Mueller-Hinton II broth, 18-22 hours at 35° C.
Experimental: as §1, §2, §3, §4

[10] = system: E. coli GC4560 (IMP mutant); conditions: Escherichia coli
Experimental: as §1, §2, §3, §4

[11] = system: S. aureus GC6466 (tet(M)); conditions: Staphylococcus aureus, Mueller-Hinton II broth, 18-22 hours at 35° C.
Experimental: as §1, §2, §3, §4

[12] = system: E. faecalis GC2242 (Van-resistant); conditions: Enterococcus faecalis, Mueller-Hinton II broth, 18-22 hours at 35° C.
Experimental: as §1, §2, §3, §4

[13] = system: S. pyogenes* GC4563 (Clinical); conditions: Streptococcus pyogenes, Mueller-Hinton II broth, 18-22 hours at 35° C.
Experimental: as §1, §2, §3, §4

[14] = system: S. pneumoniae* GC4465 (Clinical); conditions: Streptococcus pneumoniae, Mueller-Hinton II broth, 18-22 hours at 35° C.
Experimental: as §1, §2, §3, §4

[15] = system: S. aureus GC2216 (ATCC Control); conditions: Staphylococcus aureus, Mueller-Hinton II broth, 18-22 hours at 35° C.
Experimental: as §1, §2, §3, §4

[16] = system: E. faecalis GC4555 (ATCC Control); conditions: Enterococcus faecalis, Mueller-Hinton II broth, 18-22 hours at 35° C.
Experimental: as §1, §2, §3, §4

SMILES	MIC [1]	MIC [2]	MIC [3]	MIC [4]	MIC (E. coli GC1073 (tet(B)))	MIC [5]	MIC [6]	MIC (E. coli GC2270 (tet(M)))	MIC [7]	MIC [8]	MIC [9]	MIC [10]	MIC [11]	MIC [12]	MIC [13]	MIC [14]	MIC [15]	MIC [16]
CN(C)c1cc2nc(C=C(c3ccccc3)c3ccccc3)oc2c2c1C[C@H]1C[C@H]3[C@H](N(C)C)C(O)=C(C(N)=O)C(=O)[C@@]3(O)C(O)=C1C2=O [Example 1, (6aR,7aS,8S,11aS)-5,8-bis(dimethylamino)-2-(2,2-diphenylvinyl)-9,11a,12-trihydroxy-11,13-dioxo-6,6a,7,7a,8,11,11a,13-octahydrotetraceno[2,1-d][1,3]oxazole-10-carboxamide]	> 64 µg/mL	8 µg/mL (≈ 12.1 µM)	> 64 µg/mL	> 64 µg/mL	> 64 µg/mL	> 64 µg/mL	16 µg/mL (≈ 24.2 µM)	> 64 µg/mL	16 µg/mL (≈ 24.2 µM)	16 µg/mL (≈ 24.2 µM)	> 64 µg/mL	32 µg/mL (≈ 48.4 µM)	32 µg/mL (≈ 48.4 µM)	16 µg/mL (≈ 24.2 µM)	8 µg/mL (≈ 12.1 µM)	16 µg/mL (≈ 24.2 µM)	16 µg/mL (≈ 24.2 µM)	32 µg/mL (≈ 48.4 µM)
CC(C)=Cc1nc2ccc3cc4c(c(O)c3c2o1)C(=O)[C@]1(O)C(=O)C(C(N)=O)=C(O)[C@@H](N(C)C)[C@@H]1C4 [Example 2, (7aS,8S,11aS)-8-(dimethylamino)-9,11a,13-trihydroxy-2-(2-methyl-1-propenyl)-11,12-dioxo-7,7a,8,11,11a,12-hexahydronaphthaceno[2,1-d][1,3]oxazole-10-carboxamide]	–	–	> 64 µg/mL	> 64 µg/mL	> 64 µg/mL	–	8 µg/mL (≈ 16.3 µM)	> 64 µg/mL	8 µg/mL (≈ 16.3 µM)	8 µg/mL (≈ 16.3 µM)	> 64 µg/mL	8 µg/mL (≈ 16.3 µM)	8 µg/mL (≈ 16.3 µM)	8 µg/mL (≈ 16.3 µM)	8 µg/mL (≈ 16.3 µM)	8 µg/mL (≈ 16.3 µM)	8 µg/mL (≈ 16.3 µM)	8 µg/mL (≈ 16.3 µM)
CN(C)c1ccc(-c2nc3ccc4cc5c(c(O)c4c3o2)C(=O)[C@]2(O)C(=O)C(C(N)=O)=C(O)[C@@H](N(C)C)[C@@H]2C5)cc1 [Example 3, (7aS,8S,11aS)-8-(dimethylamino)-2-[4-(dimethylamino)phenyl]-9,11a,13-trihydroxy-11,12-dioxo-7,7a,8,11,11a,12-hexahydronaphthaceno[2,1-d][1,3]oxazole-10-carboxamide]	–	–	> 64 µg/mL	> 64 µg/mL	> 64 µg/mL	–	2 µg/mL (≈ 3.59 µM)	> 64 µg/mL	1 µg/mL (≈ 1.8 µM)	2 µg/mL (≈ 3.59 µM)	> 64 µg/mL	16 µg/mL (≈ 28.7 µM)	2 µg/mL (≈ 3.59 µM)	2 µg/mL (≈ 3.59 µM)	8 µg/mL (≈ 14.4 µM)	2 µg/mL (≈ 3.59 µM)	2 µg/mL (≈ 3.59 µM)	2 µg/mL (≈ 3.59 µM)
CN(C)c1cc2nc(C(C)(C)C)oc2c2c1C[C@H]1C[C@H]3[C@H](N(C)C)C(O)=C(C(N)=O)C(=O)[C@@]3(O)C(O)=C1C2=O [Example 4, (6aR,7aS,8S,11aS)-2-tert-butyl-5,8-bis(dimethylamino)-9,11a,12-trihydroxy-11,13-dioxo-6,6a,7,7a,8,11,11a,13-octahydrotetraceno[2,1-d][1,3]oxazole-10-carboxamide]	> 64 µg/mL	32 µg/mL (≈ 59.4 µM)	> 64 µg/mL	> 64 µg/mL	> 64 µg/mL	16 µg/mL (≈ 29.7 µM)	32 µg/mL (≈ 59.4 µM)	> 64 µg/mL	16 µg/mL (≈ 29.7 µM)	16 µg/mL (≈ 29.7 µM)	> 64 µg/mL	16 µg/mL (≈ 29.7 µM)	32 µg/mL (≈ 59.4 µM)	32 µg/mL (≈ 59.4 µM)	16 µg/mL (≈ 29.7 µM)	16 µg/mL (≈ 29.7 µM)	32 µg/mL (≈ 59.4 µM)	32 µg/mL (≈ 59.4 µM)
Cc1ccc(-c2nc3cc(N(C)C)c4c(c3o2)C(=O)C2=C(O)[C@]3(O)C(=O)C(C(N)=O)=C(O)[C@@H](N(C)C)[C@@H]3C[C@@H]2C4)cc1 [Example 5, (6aR,7aS,8S,11aS)-5,8-bis(dimethylamino)-9,11a,12-trihydroxy-2-(4-methylphenyl)-11,13-dioxo-6,6a,7,7a,8,11,11a,13-octahydrotetraceno[2,1-d][1,3]oxazole-10-carboxamide]	> 64 µg/mL	8 µg/mL (≈ 14 µM)	> 64 µg/mL	> 64 µg/mL	> 64 µg/mL	16 µg/mL (≈ 27.9 µM)	4 µg/mL (≈ 6.99 µM)	> 64 µg/mL	4 µg/mL (≈ 6.99 µM)	4 µg/mL (≈ 6.99 µM)	> 64 µg/mL	4 µg/mL (≈ 6.99 µM)	4 µg/mL (≈ 6.99 µM)	4 µg/mL (≈ 6.99 µM)	16 µg/mL (≈ 27.9 µM)	16 µg/mL (≈ 27.9 µM)	4 µg/mL (≈ 6.99 µM)	4 µg/mL (≈ 6.99 µM)
CN(C)c1cc2nc(-c3ccc(C#N)cc3)oc2c2c1C[C@H]1C[C@H]3[C@H](N(C)C)C(O)=C(C(N)=O)C(=O)[C@@]3(O)C(O)=C1C2=O [Example 7, (6aR,7aS,8S,11aS)-2-(4-cyanophenyl)-5,8-bis(dimethylamino)-9,11a,12-trihydroxy-11,13-dioxo-6,6a,7,7a,8,11,11a,13-octahydrotetraceno[2,1-d][1,3]oxazole-10-carboxamide]	64 µg/mL (≈ 110 µM)	16 µg/mL (≈ 27.4 µM)	> 64 µg/mL	> 64 µg/mL	> 64 µg/mL	4 µg/mL (≈ 6.85 µM)	8 µg/mL (≈ 13.7 µM)	> 64 µg/mL	8 µg/mL (≈ 13.7 µM)	8 µg/mL (≈ 13.7 µM)	> 64 µg/mL	8 µg/mL (≈ 13.7 µM)	8 µg/mL (≈ 13.7 µM)	8 µg/mL (≈ 13.7 µM)	8 µg/mL (≈ 13.7 µM)	8 µg/mL (≈ 13.7 µM)	8 µg/mL (≈ 13.7 µM)	8 µg/mL (≈ 13.7 µM)
CN(C)c1cc2nc(-c3cc(C(C)(C)C)ccc3O)oc2c2c1C[C@H]1C[C@H]3[C@H](N(C)C)C(O)=C(C(N)=O)C(=O)[C@@]3(O)C(O)=C1C2=O [Example 10, (6aR,7aS,8S,11aS)-2-(5-tert-butyl-2-hydroxyphenyl)-5,8-bis(dimethylamino)-9,11a,12-trihydroxy-11,13-dioxo-6,6a,7,7a,8,11,11a,13-octahydrotetraceno[2,1-d][1,3]oxazole-10-carboxamide]	> 64 µg/mL	8 µg/mL (≈ 12.7 µM)	> 64 µg/mL	> 64 µg/mL	> 64 µg/mL	> 64 µg/mL	16 µg/mL (≈ 25.4 µM)	> 64 µg/mL	16 µg/mL (≈ 25.4 µM)	8 µg/mL (≈ 12.7 µM)	> 64 µg/mL	32 µg/mL (≈ 50.7 µM)	16 µg/mL (≈ 25.4 µM)	8 µg/mL (≈ 12.7 µM)	16 µg/mL (≈ 25.4 µM)	16 µg/mL (≈ 25.4 µM)	16 µg/mL (≈ 25.4 µM)	16 µg/mL (≈ 25.4 µM)
